{"source": "patent US6465494B1", "about": "“Methods for treatment of cystic fibrosis” (Cell Pathways, Inc., priority 2001, dated 2002)", "key": {"PDE5": {"biological_target": "PDE5 (Homo sapiens, UniProt O76074)", "assay": "competitive (with cGMP) binding to PDE5"}, "[1]": {"assay": "single, escalating dose human clinical safety study", "assay_type": "in vivo", "details": "oral, 50 mg BID, 100 mg BID, 200 mg BID and 400 mg BID"}, "[2]": {"biological_target": "T1, GST-cGB-PDE5 fusion protein (Homo sapiens, UniProt O76074)", "T1 construct": "made in house; host or cells: E. coli BL21 (DE3)", "assay": "cGMP binding assay with GST-cGB-PDE5 fusion protein", "details": "3H-cGMP 2 μM, 22° C., 1 hour", "text": "RT-PCR method is used to obtain the cGB domain of PDE5 with forward and reverse primers designed from bovine PDE5A cDNA sequence (McAllister-Lucas L. M et al, J. Biol. Chem. 268, 22863-22873, 1993) and the selection among PDE 1-10 families. 5′-3′, Inc. kits for total RNA followed by oligo (dT) column purification of mRNA are used with HT-29 cells. […] It is then cloned into pGEX-5X-3 glutathione-S-transferase (GST) fusion vector (Pharmacia Biotech )with tac promoter, and EcoRI and XhoI cut sites. The fusion vector is then transfected into E. Coli BL21 (DE3) bacteria (Invitrogen). The transfected BL21 bacteria is grown to log phase, and then IPTG is added as an inducer. The induction is carried at 20° C. for 24 hrs. The bacteria are harvested and lysed. The soluble cell lysate is incubated with GSH conjugated Sepharose 4B (GSH-Sepharose 4B). The GST-cGB-PDE5 fusion protein can bind to the GSH-Sepharose beads, and the other proteins are washed off from beads with excessive cold PBS.\nThen, the mixture is transferred to Brandel MB-24 cell harvester with GF/B as the filter membrane followed by 2 washes with 10 mL of cold 5 mM potassium buffer(pH 6.8). The membranes are then cut out and transferred to scintillation vials followed by the addition of 1 mL of H2O and 6 mL of Ready Safe™ liquid scintillation cocktail to each vial. The vials are counted on a Beckman LS 6500 scintillation counter.\nThe quenching by filter membrane or other debris are also calibrated."}, "[3]": {"assay": "91-day oral study in dogs", "assay_type": "in vivo"}, "U937 cells": {"system": "U937 cells", "assay": "apoptosis induction of U937 cells (active caspase 3 immunofluorescence)", "assay_type": "cell-based", "details": "1 μM, 24 hours, hydrochloride", "description": "The U937 monocyte cell line was derived from a histocytic lymphoma and can be driven to differentiate into an ‘activated macrophage like’ state by treatment with 5nM phorbal ester (TPA). Treated U937 cells become adherent, increase their cytoplasmic volume and express macrophage-specific cell surface markers. The presence and level of PDE2 and 5 mRNA in both differentiated and non-differentiated U937 cells was confirmed by performing RT-PCR experiments on total RNA.\nU937 cells (from ATCC Rockville, Md.) were grown in RPMI media supplemented with 5% FCS, glutamine, antibiotic/antimycotic and sodium pyruvate. Total RNA was isolated from two U937 cultures, one treated with 5nM TPA for 48 hours and one grown in normal media as listed above, using the Rouche High Pure RNA Isolation Kit (cat# 1 828 665) as per manufacturers protocol. cDNA was then synthesized from the total RNA using GibcoBRL Superscriptll (Cat # 18064-022) reverse transcriptase as per manufacturers protocol. The resulting cDNA was used as a template for RT-PCR reactions using primer sets specific for PDE2 (forward: […], reverse: […]) or PDE5 (forward: […], reverse: […]). mRNA for PDE2 and 5 were both present in the untreated U937 cells. Upon treatment with TPA, the relative amounts of PDE2 mRNA increased 5 fold. Therefore, U937 cells treated with TPA and driven to differentiate into an activated macrophage like state have elevated levels of PDE2 mRNA (see FIG. 1).\nThe presence of PDE2 and PDE5 protein within U937 cells was confirmed by indirect immunofluorescence (IIF). U937 cells were cultured as above. Two U937 cultures, one grown in the presence of 5 nM TPA for 48 hours and one grown in normal media were processed. All cultures were collected by centrifugation (Shandon Cytospin, 2 minutes @ 600 rpm) onto poly-L lysine-coated slides and immediately fixed in fresh 3% paraformaldehyde buffered in PBS for 10 minutes. Adherent cultures were grown on coverslips and fixed as above. […]\nThe level of apoptosis in U937 cells was quantified by scoring 500 consecutive cells for the presence of active caspase 3. […]"}, "PDE4": {"system": "PDE4", "assay": "PDE inhibition, similar protocols: PDE4", "assay_type": "biochemical"}}, "note": "“Also recorded” adds a separate entry of the source. Counter-ions that a name gives are not always drawn."}
{"smiles": "CC1=C(CC(=O)NCc2ccccc2)c2cc(F)ccc2/C1=C\\c1ccncc1", "note": "[Example 38, (Z)-5-fluoro-2-methyl-(4-pyridylidene)-3-(N-benzyl)indenylacetamide hydrochloride]", "values": [{"measurement": "competitive (with cGMP) binding to PDE 5", "setting": "PDE5", "value": "does competitively (with cGMP) bind to PDE 5"}, {"measurement": "side effects", "setting": "[1]", "value": "no significant side effects at any dose"}, {"measurement": "competition with cGMP in binding to the cGMP binding sites of GST-cGB-PDE5", "setting": "[2]", "value": "does not bind to the cGMP-binding site of PDE5"}, {"measurement": "tolerability", "setting": "[3]; 91 days", "value": "well tolerated"}, {"measurement": "feces observation", "setting": "[3]; 91 days, 150 and 300 mg/kg/day", "value": "Orange discoloration of the feces"}, {"measurement": "body weights", "setting": "[3]; 91 days, highest dose group", "value": "Slightly lowered body weights"}, {"measurement": "liver weights", "setting": "[3]; 91 days, highest dose group", "value": "increased liver weights"}, {"measurement": "microscopic alterations of liver", "setting": "[3]; 91 days, highest dose group", "value": "no microscopic alterations"}, {"measurement": "toxicological effects overall", "setting": "[3]; oral, 91 consecutive days, 50, 150 and 300 mg/kg/day", "value": "no toxicological effects"}, {"measurement": "induction of apoptosis (active caspase 3)", "setting": "U937 cells", "value": "undergoing apoptosis as reflected by the presence of active caspase 3; also recorded: causes the induction of apoptosis in the differentiated and non-differentiated U937 cell line"}, {"measurement": "IC50", "setting": "PDE4", "value": 6, "unit": "µM"}]}
